# Assay results as given in patent US12329745B2, “Methods and compositions for treating glucocorticoid excess” (Sparrow Pharmaceuticals, Inc., priority 2022, dated 2025).
# Experiments:
# C57BL/6 male mice = experiment: Mitigation of corticosterone (CORT) adverse effects in mouse; format: in vivo; parameters: food consumption, group Mean: unit not given here
# Method: A control group received no CORT or SPI-62. Body weight was assessed daily and food consumption twice weekly. Whole body muscle and fat amounts were measured at Days 0, 14, and 28 using an EchoMRI-130H body composition analyzer. Blood samples for fasting glucose and insulin were obtained at Days 1 (pre-dose), 15, 29, and 35. An open field test was conducted on Day 22. A grip strength test was performed on Day 28. After sacrifice on Day 36, gonadal, subcutaneous, retroperitoneal, and mesenteric fat, quadriceps, and tibialis anterior were dissected and weighed, and skin was formalin fixed and paraffin embedded.
# serum cortisone = experiment: Serum cortisone and cortisol in patients with painful diabetic peripheral neuropathy; format: in vivo, human; conditions: 10 mg for 6 weeks
# [1] = 10 mg/kg QD + CORT, post-mortem Day 36
smiles,measurement,setting,value
"Cn1c(-c2ccc(C(N)=O)cc2F)nnc1C(C)(C)Oc1c(F)cc(Cl)cc1F [SPI-62, 4-(5-(2-(4-chloro-2,6-difluorophenoxy)propan-2-yl)-4-methyl-4H-1,2,4-triazol-3-yl)-3-fluorobenzamide]","Fat depot weight, Mesenteric, Mean",C57BL/6 male mice; [1],6.23 mg/g body weight
same,"Fat depot weight, Retroperitoneal, Mean",C57BL/6 male mice; [1],2.40 mg/g body weight
same,"Fat depot weight, Subcutaneous, Mean",C57BL/6 male mice; [1],3.35 mg/g body weight
same,"Muscle weight, Quadriceps, Mean",C57BL/6 male mice; [1],5.33 mg/g body weight
same,"Muscle weight, Tibialis anterior, Mean",C57BL/6 male mice; [1],2.14 mg/g body weight
same,"body weight, group Mean","C57BL/6 male mice; 1 mpk QD + CORT, Baseline",22.1 g
same,"food consumption, group Mean","C57BL/6 male mice; 1 mpk QD + CORT, Day 4",3.26
same,"food consumption, group Mean","C57BL/6 male mice; 1 mpk QD + CORT, Day 8",2.92
same,"food consumption, group Mean","C57BL/6 male mice; 1 mpk QD + CORT, Day 11",3.09
same,"body weight, group Mean","C57BL/6 male mice; 1 mpk QD + CORT, Day 15",21.9 g
same,"food consumption, group Mean","C57BL/6 male mice; 1 mpk QD + CORT, Day 15",3.04
same,"food consumption, group Mean","C57BL/6 male mice; 1 mpk QD + CORT, Day 18",2.91
same,"food consumption, group Mean","C57BL/6 male mice; 1 mpk QD + CORT, Day 22",3.23
same,"food consumption, group Mean","C57BL/6 male mice; 1 mpk QD + CORT, Day 25",3.74
same,"body weight, group Mean","C57BL/6 male mice; 1 mpk QD + CORT, Day 29",23.2 g
same,"food consumption, group Mean","C57BL/6 male mice; 1 mpk QD + CORT, Day 29",2.90
same,"food consumption, group Mean","C57BL/6 male mice; 1 mpk QD + CORT, Day 32",2.77
same,"body weight, group Mean","C57BL/6 male mice; 1 mpk QD + CORT, Day 35",23.8 g
same,"food consumption, group Mean","C57BL/6 male mice; 1 mpk QD + CORT, Day 36",3.13
same,"body weight, group Mean","C57BL/6 male mice; 10 mpk BID + CORT, Baseline",22.1 g
same,"food consumption, group Mean","C57BL/6 male mice; 10 mpk BID + CORT, Day 4",3.36
same,"food consumption, group Mean","C57BL/6 male mice; 10 mpk BID + CORT, Day 8",2.88
same,"food consumption, group Mean","C57BL/6 male mice; 10 mpk BID + CORT, Day 11",2.92
same,"body weight, group Mean","C57BL/6 male mice; 10 mpk BID + CORT, Day 15",21.5 g
same,"food consumption, group Mean","C57BL/6 male mice; 10 mpk BID + CORT, Day 15",2.74
same,"food consumption, group Mean","C57BL/6 male mice; 10 mpk BID + CORT, Day 18",3.36
same,"food consumption, group Mean","C57BL/6 male mice; 10 mpk BID + CORT, Day 22",2.89
same,"food consumption, group Mean","C57BL/6 male mice; 10 mpk BID + CORT, Day 25",3.13
same,"body weight, group Mean","C57BL/6 male mice; 10 mpk BID + CORT, Day 29",21.7 g
same,"food consumption, group Mean","C57BL/6 male mice; 10 mpk BID + CORT, Day 29",2.79
same,"food consumption, group Mean","C57BL/6 male mice; 10 mpk BID + CORT, Day 32",3.27
same,"body weight, group Mean","C57BL/6 male mice; 10 mpk BID + CORT, Day 35",21.8 g
same,"food consumption, group Mean","C57BL/6 male mice; 10 mpk BID + CORT, Day 36",2.83
same,"body weight, group Mean","C57BL/6 male mice; 10 mpk QD + CORT, Baseline",22 g
same,"food consumption, group Mean","C57BL/6 male mice; 10 mpk QD + CORT, Day 4",3.37
same,"food consumption, group Mean","C57BL/6 male mice; 10 mpk QD + CORT, Day 8",2.98
same,"food consumption, group Mean","C57BL/6 male mice; 10 mpk QD + CORT, Day 11",3.11
same,"body weight, group Mean","C57BL/6 male mice; 10 mpk QD + CORT, Day 15",21.4 g
same,"food consumption, group Mean","C57BL/6 male mice; 10 mpk QD + CORT, Day 15",2.91
same,"food consumption, group Mean","C57BL/6 male mice; 10 mpk QD + CORT, Day 18",3.08
same,"food consumption, group Mean","C57BL/6 male mice; 10 mpk QD + CORT, Day 22",3.15
same,"food consumption, group Mean","C57BL/6 male mice; 10 mpk QD + CORT, Day 25",3.50
same,"body weight, group Mean","C57BL/6 male mice; 10 mpk QD + CORT, Day 29",22.2 g
same,"food consumption, group Mean","C57BL/6 male mice; 10 mpk QD + CORT, Day 29",2.99
same,"food consumption, group Mean","C57BL/6 male mice; 10 mpk QD + CORT, Day 32",3.00
same,"body weight, group Mean","C57BL/6 male mice; 10 mpk QD + CORT, Day 35",22.8 g
same,"food consumption, group Mean","C57BL/6 male mice; 10 mpk QD + CORT, Day 36",3.24
same,CORT effects on dermal thickness and structure,"C57BL/6 male mice; 35 days, FIG. 12",less prominent
same,effect in the open field test,C57BL/6 male mice; Day 22,No effect
same,CORT adverse effect of grip strength reduction,C57BL/6 male mice; Day 28,prevented
same,serum cortisol,serum cortisone,did not change
same,serum cortisone,serum cortisone; last day of study drug administration (n=36),56.0 (2.37) nM
same,serum cortisone,serum cortisone; two weeks later,49.5 (1.75) nM
